US10472341B2, “Bicyclic tetrahydrothiazepine derivatives useful for the treatment of neoplastic and/or infectious diseases” (APEIRON BIOLOGICS AG, priority 2015, dated 2019)

Legend:
[1] = test system: aCD3/aCD28-stimulated human CD4+-T-cells; assay: IL-2 production and activation markers in aCD3/aCD28 stimulated isolated human CD4+-T-cells; assay type: cell-based; details: IL-2 production at 3 μM compound
In short: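 CD4+ T cells isolated from buffy-coat PBMCs by microbeads were plated in Xvivo medium (1.5*10^5 cells/well) and stimulated with anti-CD3/28 mAbs plus compound. IL-2 measured by ELISA in supernatants at 24 h or 48 h; CD25 and proliferation by flow cytometry, CD69 at 24 h. Activity classes based on IL-2 at 3 μM compound.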

[2] = test system: immune cells & anti-GD2-antibodies bound on M21 melanoma cells; assay: Immune cells stimulated by anti-GD2-antibody bound on M21 melanoma cells: TNF-alpha, activated NK cells; assay type: cell-based, human
Procedure: Isolated PBMCs, NK cells or CD8 positive cells were plated in Xvivo medium at 1.5*10^5 cells per in 96 well culture plates in the presence of 0.3*10^4 tumor cells where indicated. Cytokine secretion was determined by ELISA, immune cell activation (using Beckman-Coulter Abs CD25-PC5, CD69-PC7), cell viability and numbers by flow cytometry (Beckman-Coulter FC500 or Gallios) using 7-AAD exclusion as criterion for living cells. […] Antibodies that are bound to pathogens or pathogen-infected cells trigger activation of immune cells via Fc-receptors, that are expressed particularly on NK cells and myeloid cells. This mechanism is also utilized for cancer therapies when therapeutic antibodies against antigens which are preferentially expressed on cancer cells are administrated to patients which in turn recruit and activate immune cells to directly attack cancer cells. The GD2-antigen is strongly expressed on cancer cells of particular origins (among neuroblastoma and melanoma) and is therefore developed clinically as anti-cancer therapy. For M21 melanoma cells, GD2 is the only antigen that has been characterized to be accessible as tumor antigen. Therefore, an anti-GD2-antibody that was available in clinically grade quality was employed to test whether compounds can enhance the Fc-receptor mediated activation of immune cells to tumor-cell bound therapeutic antibodies.

[3] = test system: PBMCs & tumor cell lines (K562, Panc1, BxPc3, HT-29, A549, HTB46, HTB47, A375, M21, SKBR3, CRL2505); assay: PBMCs alone or in co-culture with tumor cells of diverse origin: cytokines and granzyme; assay type: cell-based, human; details: for Granzyme / IFN-gamma / IL-2: 3 μM
Procedure: Isolated PBMCs, NK cells or CD8 positive cells were plated in Xvivo medium at 1.5*10^5 cells per in 96 well culture plates in the presence of 0.3*10^4 tumor cells where indicated. Cytokine secretion was determined by ELISA, immune cell activation (using Beckman-Coulter Abs CD25-PC5, CD69-PC7), cell viability and numbers by flow cytometry (Beckman-Coulter FC500 or Gallios) using 7-AAD exclusion as criterion for living cells. The tumor cell lines M21 and K562 represent two widely used tumor lines of melanoma and leukemia origin, respectively. However, tumor cells are known to employ different mechanisms to suppress immune functions, therefore it was investigated if the effects of compounds on immune cell activities against tumor cells can be generalized to a wide array of tumor cells of very diverse origins from different types of tumors. PBMCs were isolated and incubated with and without compounds, either alone or in co-culture with different tumor cells.

[4] = test system: non-stimulated PBMCs; assay: Non-stimulated PBMCs: cytokine secretion and signs of T-cell activation; assay type: cell-based, human
Description: This is an important finding for compounds that shall selectively act on T cells which have been activated by presence of antigen from pathogens or tumors, but shall not lead to an unwanted general activation of all T cells of a patient.

[5] = PBMC & M21 tumor cells & anti-GD2 Ab high concentration, 0.3 μM
[6] = PBMC & M21 tumor cells & anti-GD2 Ab high concentration, 1 μM
[7] = PBMC & M21 tumor cells & anti-GD2 Ab high concentration, 3 μM
[8] = PBMC & M21 tumor cells & anti-GD2 Ab high concentration, 10 μM
[9] = PBMC & M21 tumor cells & anti-GD2 Ab low concentration, 0.3 μM
[10] = PBMC & M21 tumor cells & anti-GD2 Ab low concentration, 1 μM
[11] = PBMC & M21 tumor cells & anti-GD2 Ab low concentration, 3 μM
[12] = PBMC & M21 tumor cells & anti-GD2 Ab low concentration, 10 μM
[13] = PBMC & M21 tumor cells only, 0.3 μM
[14] = PBMC & M21 tumor cells only, 1 μM
[15] = PBMC & M21 tumor cells only, 3 μM
[16] = PBMC & M21 tumor cells only, 10 μM

Cl.N[C@H]1CSc2cc(F)c(C(=O)NCCCC(F)(F)F)cc2N(Cc2ccc(Cl)cc2)C1=O [Example 40, (3R)-3-amino-5-[(4-chlorophenyl)methyl]-8-fluoro-4-oxo-N-(4,4,4-trifluorobutyl)-2,3,4,5-tetrahydro-1,5-benzothiazepine-7-carboxamide hydrochloride]
Activity Class CD4+ [1]: B (IL-2 production at 3 μM compound concentration between 2-10 ng/mL) | TNF-alpha [2, 5]: 106.30 pg/mL | strongly activated NK cells [2, 5]: 23.55 % CD25+CD69+ | TNF-alpha [2, 6]: 142.98 pg/mL | strongly activated NK cells [2, 6]: 32.63 % CD25+CD69+ | TNF-alpha [2, 7]: 192.34 pg/mL | strongly activated NK cells [2, 7]: 42.50 % CD25+CD69+ | TNF-alpha [2, 8]: 257.96 pg/mL | strongly activated NK cells [2, 8]: 42.22 % CD25+CD69+ | TNF-alpha [2, 9]: 36.53 pg/mL | strongly activated NK cells [2, 9]: 6.92 % CD25+CD69+ | TNF-alpha [2, 10]: 55.72 pg/mL | strongly activated NK cells [2, 10]: 11.88 % CD25+CD69+ | TNF-alpha [2, 11]: 93.25 pg/mL | strongly activated NK cells [2, 11]: 17.22 % CD25+CD69+ | TNF-alpha [2, 12]: 114.88 pg/mL | strongly activated NK cells [2, 12]: 20.25 % CD25+CD69+ | TNF-alpha [2, 13]: 17.47 pg/mL | strongly activated NK cells [2, 13]: 0.75 % CD25+CD69+ | TNF-alpha [2, 14]: 17.59 pg/mL | strongly activated NK cells [2, 14]: 1.10 % CD25+CD69+ | TNF-alpha [2, 15]: 28.95 pg/mL | strongly activated NK cells [2, 15]: 2.40 % CD25+CD69+ | TNF-alpha [2, 16]: 38.00 pg/mL | strongly activated NK cells [2, 16]: 2.19 % CD25+CD69+ | reactivity of immune cells to anti-GD2-antibodies bound on M21 melanoma cells ([2]; cytokine secretion, NK cell activation): enhanced reactivity of immune cells to anti-GD2-antibodies bound on M21 melanoma cells, resulting in increased secretion of cytokine and activation of NK cells | Granzyme ([3]; PBMC & A375): 0.053 ng/mL | IFN-gamma ([3]; PBMC & A375): 0.142 ng/mL | IL-2 ([3]; PBMC & A375): 0.278 ng/mL | Granzyme ([3]; PBMC & A549): 0.020 ng/mL | IFN-gamma ([3]; PBMC & A549): 0.214 ng/mL | IL-2 ([3]; PBMC & A549): 0.018 ng/mL | Granzyme ([3]; PBMC & BxPc3): 0.008 ng/mL | IFN-gamma ([3]; PBMC & BxPc3): 0.088 ng/mL | IL-2 ([3]; PBMC & BxPc3): 0.092 ng/mL | Granzyme ([3]; PBMC & CRL2505): 0.780 ng/mL | IFN-gamma ([3]; PBMC & CRL2505): 0.663 ng/mL | IL-2 ([3]; PBMC & CRL2505): 0.012 ng/mL | Granzyme ([3]; PBMC & HT-29): 0.003 ng/mL | IFN-gamma ([3]; PBMC & HT-29): 0.022 ng/mL | IL-2 ([3]; PBMC & HT-29): 0.033 ng/mL | Granzyme ([3]; PBMC & HTB46): 0.404 ng/mL | IFN-gamma ([3]; PBMC & HTB46): 0.665 ng/mL | IL-2 ([3]; PBMC & HTB46): 0.168 ng/mL | Granzyme ([3]; PBMC & HTB47): 0.072 ng/mL | IFN-gamma ([3]; PBMC & HTB47): 0.277 ng/mL | IL-2 ([3]; PBMC & HTB47): 0.075 ng/mL | Granzyme ([3]; PBMC & K562): 0.011 ng/mL | IFN-gamma ([3]; PBMC & K562): 0.000 ng/mL | IL-2 ([3]; PBMC & K562): 0.000 ng/mL | Granzyme ([3]; PBMC & M21): 0.001 ng/mL | IFN-gamma ([3]; PBMC & M21): 0.000 ng/mL | IL-2 ([3]; PBMC & M21): 0.037 ng/mL | Granzyme ([3]; PBMC & Panc1): 0.005 ng/mL | IFN-gamma ([3]; PBMC & Panc1): 0.000 ng/mL | IL-2 ([3]; PBMC & Panc1): 0.013 ng/mL | Granzyme ([3]; PBMC & SKBR3): 0.001 ng/mL | IFN-gamma ([3]; PBMC & SKBR3): 0.000 ng/mL | IL-2 ([3]; PBMC & SKBR3): 0.005 ng/mL | Granzyme ([3]; PBMC only): 0.001 ng/mL | IFN-gamma ([3]; PBMC only): 0.000 ng/mL | IL-2 ([3]; PBMC only): 0.000 ng/mL | secretion of cytokines (IL-2, IFN-gamma) and granzyme ([3]; PBMCs in co-culture with diverse tumor cell lines): enhanced secretion of cytokines and granzyme strongly specifically upon tumor cell contact in diverse tumor cell lines | enhancement of cytokine and granzyme secretion ([3]; PBMCs in the absence of tumor cells): such effect was not detected in the absence of tumor cells | cytokine secretion or other signs of T-cell activation [4]: did not enhance cytokine secretion or other signs of T-cell activation
